Experimental data as given in ChEMBL document CHEMBL1147786, “Synthesis and evaluation of a mechanism-based inhibitor of a 3-deoxy-D-arabino heptulosonate 7-phosphate synthase” (Bioorg Med Chem Lett, 2006).
pIC50: −log10 of the molar value.

Assay: Inhibition of Escherichia coli DAH7P synthase

O=C(O)CN(C[C@H](O)[C@@H](O)[C@@H](O)COP(=O)(O)O)CP(=O)(O)O gave a pIC50 of 5.18.
